Data on 16 molecules can be found in patent publication US20030022821A1, “Bioactive peptides” (priority 1998, published 2003).

Converted amounts (≈) assume the structure as drawn. Where two headings read alike, the source gives them in different places. Ends that are not written are not given here. Peptide text beside a SMILES is read from it. * marks the point of attachment. Acm = CC(=O)NC*

Holding throughout (format): cell-based
The subject of series [1] is Escherichia coli ATCC 25922. The method, then: (§1) The bacterial strains used were: Escherichia coli ATCC 25922 and Staphylococcus aureus ATCC 25923. All strains were stored at −70° C. The bacteria were grown in 2% Bacto Peptone water (Difco 1807-17-4). All tests were performed with bacteria in mid-logarithmic growth phase. Determination of the minimum inhibitory concentration (MIC) of the peptides for bacterial strains were performed in 1% Bacto Peptone water. A standard microdilution technique with an inoculum of 2×10^6 CFU/ml was used. All assays were performed in triplets. Since the peptides are positively charged and therefore could adhere to the plastic wells, we controlled the actual concentration of the peptides in the solution by HPLC. There was no difference between the concentration of the peptides before or after adding the solution to the plastic wells.

The test system of series [2] is Staphylococcus aureus ATCC 25923. The method, then: as §1
For series [3], the system named is human red blood cells. Kind of series: Hemolytic assay. The method, then:
The hemolytic activities of the peptides were determined using fresh human red blood cells. 8 ml blood was taken from a healthy person. 4 ml blood was transferred to a polycarbonate tube containing heparin to a final concentration of 10 U/ml, and the remaining 4 ml blood was transferred to a glass tube containing EDTA with final concentration of 15% EDTA. The erythrocytes were isolated from heparin-treated blood by centrifugation in 1500 rpm for 10 min and washed three times with phosphate-buffered saline (PBS) to remove plasma and buffy coat. The cell pellet was resuspended in PBS to make the final volume of 4 ml. The peptide was diluted to a concentration of 2 mg/ml and 0.1 mg/ml. The peptide was further diluted to the concentrations as stated in Table 15. For each tube PBS was added first, then RBCs and peptide solutions. The hematocrit in the blood treated with EDTA was determined after 30 min with Sysmex K-1000, and the resuspended RBCs were diluted into 10% hematocrit. RBCs in PBS (1%) with and without peptides (Table 15) were incubated in a shaker at […] for 1 hour and then centrifuged at 4000 rpm for 5 min. The supernatant were carefully transferred to new polycarbonate tubes and the absorbance of the supernatant was measured at 540 nm. Baseline hemolysis was hemoglobin released in the presence of PBS, and 100% hemolysis was hemoglobin released in the presence of 0.1% Triton X-100.

Take `CSCC[C@@H](NC(=O)[C@@H](CCCNC(=N)N)NC(=O)[C@@H](Cc1c[nH]c2ccccc12)NC(=O)[C@@H](CCC(N)=O)NC(=O)[C@@H](Cc1c[nH]c2ccccc12)NC(=O)[C@@H](CCCNC(=N)N)NC(=O)[C@@H](CCCNC(=N)N)NC(=O)[C@@H](CSCNC(C)=O)NC(=O)[C@@H](CCCCN)NC(=O)[C@H](N)Cc1ccccc1)C(=O)N[C@H](CCCCN)C(=O)N[C@H](CCCCN)C(=O)N[C@H](CC(C)C)C(=O)NCC(=O)N[C@H](C)C(=O)O` [Enantio LFB 17-31]: the MIC E. coli in series [1] (Table 3) amounted to 7.5 µg/mL (≈ 3.63 µM). In series [2] (Table 3, unit assumed), this molecule registered an MIC S. aureus of 60 µg/mL (≈ 29 µM). For the same molecule, the “% Hemolysis 10 μg/ml” value in series [3] (red cells of human, 10) is on record as 3.05%.

For the molecule `CSCC[C@H](NC(=O)[C@H](C)NC(=O)[C@H](Cc1c[nH]c2ccccc12)NC(=O)[C@H](CCC(N)=O)NC(=O)[C@H](Cc1c[nH]c2ccccc12)NC(=O)[C@H](CCCNC(=N)N)NC(=O)[C@H](CC(C)C)NC(=O)[C@H](CSCNC(C)=O)NC(=O)[C@H](CCCCN)NC(=O)[C@H](C)N)C(=O)N[C@@H](CCCNC(=N)N)C(=O)N[C@@H](CCCCN)C(=O)N[C@@H](Cc1ccc(O)cc1)C(=O)NCC(=O)NCC(=O)O` [LFM A1, 9 W8 Y13] (H-AKC(Acm)LRWQWAMRKYGG-OH; N-terminus and C-terminus assumed), the “MIC E. coli” value in series [1] (ATCC 25922) is 150 µg/mL (≈ 77.9 µM). Besides, the “MIC S. aureus” value in series [2] (ATCC 25923) is greater than 1000 µg/mL.

In the case of `CSCC[C@H](NC(=O)[C@H](C)NC(=O)[C@H](Cc1c[nH]c2ccccc12)NC(=O)[C@H](CCC(N)=O)NC(=O)[C@H](Cc1c[nH]c2ccccc12)NC(=O)[C@H](CCCNC(=N)N)NC(=O)[C@H](CC(C)C)NC(=O)[C@H](CSCNC(C)=O)NC(=O)[C@H](CCCCN)NC(=O)[C@@H](N)CCC(=O)O)C(=O)N[C@@H](CCCNC(=N)N)C(=O)N[C@@H](CCCCN)C(=O)N[C@@H](Cc1ccc(O)cc1)C(=O)NCC(=O)NCC(=O)O` [LFM A9 W8 Y13] (H-EKC(Acm)LRWQWAMRKYGG-OH; N-terminus and C-terminus assumed), the “MIC E. coli” value in series [1] (ATCC 25922) was greater than 1000 µg/mL. For the same molecule, in series [2] (ATCC 25923), the “MIC S. aureus” value was greater than 1000 µg/mL.

Turning to `CSCC[C@H](NC(=O)[C@H](CCC(=O)O)NC(=O)[C@H](Cc1c[nH]c2ccccc12)NC(=O)[C@H](CCC(N)=O)NC(=O)[C@H](Cc1c[nH]c2ccccc12)NC(=O)[C@H](CCCNC(=N)N)NC(=O)[C@H](CC(C)C)NC(=O)[C@H](CSCNC(C)=O)NC(=O)[C@H](CCCCN)NC(=O)[C@@H](N)CCCNC(=N)N)C(=O)N[C@@H](CCCNC(=N)N)C(=O)N[C@@H](CCCCN)C(=O)N[C@@H](Cc1ccc(O)cc1)C(=O)NCC(=O)NCC(=O)O` [LFM R1 W8 Y13] (H-RKC(Acm)LRWQWEMRKYGG-OH; N-terminus and C-terminus assumed), the “MIC E. coli” value in series [1] (ATCC 25922) was 50 µg/mL (≈ 24.2 µM). Besides, the “MIC S. aureus” value in series [2] (ATCC 25923) was found to be 50 µg/mL (≈ 24.2 µM).

Consider `CSCC[C@H](NC(=O)[C@H](CCCNC(=N)N)NC(=O)[C@H](Cc1c[nH]c2ccccc12)NC(=O)[C@H](CCC(N)=O)NC(=O)[C@H](Cc1c[nH]c2ccccc12)NC(=O)[C@H](CCCNC(=N)N)NC(=O)[C@H](CC(C)C)NC(=O)[C@H](CSCNC(C)=O)NC(=O)[C@H](CCCCN)NC(=O)[C@@H](N)CCCNC(=N)N)C(=O)N[C@@H](CCCNC(=N)N)C(=O)N[C@@H](CCCCN)C(=O)N[C@@H](Cc1ccc(O)cc1)C(=O)NCC(=O)NCC(=O)O` [LFM R1, 9 W8 Y13] (H-RKC(Acm)LRWQWRMRKYGG-OH; N-terminus and C-terminus assumed), for which the “MIC E. coli” value in series [1] (ATCC 25922) was determined as 25 µg/mL (≈ 11.9 µM). Besides, the “MIC S. aureus” value in series [2] (ATCC 25923) is 50 µg/mL (≈ 23.9 µM).

For `CSCC[C@H](NC(=O)[C@H](CCCNC(=N)N)NC(=O)[C@H](Cc1c[nH]c2ccccc12)NC(=O)[C@H](CCC(N)=O)NC(=O)[C@H](Cc1c[nH]c2ccccc12)NC(=O)[C@H](CCCNC(=N)N)NC(=O)[C@H](CC(C)C)NC(=O)[C@H](CSCNC(C)=O)NC(=O)[C@H](CCCCN)NC(=O)[C@@H](N)CCC(=O)O)C(=O)N[C@@H](CCCNC(=N)N)C(=O)N[C@@H](CCCCN)C(=O)N[C@@H](Cc1ccc(O)cc1)C(=O)NCC(=O)NCC(=O)O` [LFM R9 W8 Y13] (H-EKC(Acm)LRWQWRMRKYGG-OH; N-terminus and C-terminus assumed), the “MIC E. coli” value in series [1] (ATCC 25922) worked out at 150 µg/mL (≈ 72.5 µM). Also, the “MIC S. aureus” value in series [2] (ATCC 25923) amounted to 1000 µg/mL (≈ 483 µM).

Consider `CSCC[C@H](NC(=O)[C@H](CCC(=O)O)NC(=O)[C@H](Cc1c[nH]c2ccccc12)NC(=O)[C@H](CCC(N)=O)NC(=O)[C@H](Cc1c[nH]c2ccccc12)NC(=O)[C@H](CCCNC(=N)N)NC(=O)[C@H](CC(C)C)NC(=O)[C@H](CSCNC(C)=O)NC(=O)[C@H](CCCCN)NC(=O)[C@@H](N)CCC(=O)O)C(=O)N[C@@H](CCCNC(=N)N)C(=O)N[C@@H](CCCCN)C(=O)N[C@@H](Cc1ccc(O)cc1)C(=O)NCC(=O)NCC(=O)O` [LFM W8 Y13] (H-EKC(Acm)LRWQWEMRKYGG-OH; N-terminus and C-terminus assumed), for which the “MIC E. coli” value in series [1] (ATCC 25922) is greater than 1000 µg/mL. Besides, the “MIC S. aureus” value in series [2] (ATCC 25923) is greater than 1000 µg/mL.

The molecule `CC[C@H](C)[C@H](NC(=O)[C@H](CCCCN)NC(=O)[C@H](Cc1c[nH]c2ccccc12)NC(=O)[C@H](CCC(N)=O)NC(=O)[C@H](Cc1c[nH]c2ccccc12)NC(=O)[C@H](CCC(N)=O)NC(=O)[C@H](CCCNC(=N)N)NC(=O)[C@H](CSCNC(C)=O)NC(=O)[C@H](CCCCN)NC(=O)[C@@H](N)CO)C(=O)N[C@@H](CCCNC(=N)N)C(=O)N[C@@H](CCCNC(=N)N)C(=O)N[C@H](C(=O)N[C@@H](CC(N)=O)C(=O)N1CCC[C@H]1C(=O)O)[C@@H](C)O` [LFPW8] (H-SKC(Acm)RQWQWKIRRTNP-OH; N-terminus assumed) gave an MIC E. coli in series [1] (Table 4) of 500 µg/mL (≈ 243 µM). The molecule further showed an MIC S. aureus in series [2] (Table 4, unit assumed) greater than 1000 µg/mL.

As to H-FKARRWAWRMKKLGA-OH [LFB A3, 7], in series [3], the “EC 50” value was greater than 1000 µg/mL and the EC50 (in general, the midpoint of the concentration-response curve) is greater than 525 µM.

Regarding “LFH Pmc: human lactoferricin with Pmc attached to the only available tryptophan”, in series [1] (Table 5), the MIC E. coli worked out at 25 µg/mL. Moreover, the MIC S. aureus in series [2] (Table 5, unit assumed) amounted to 50 µg/mL.

With RRWQWRMKKLGA-OH [LFB 20-31], the “MIC E. coli ATCC 25922” value in series [1] (ATCC 25922) was 100 µg/mL; in series [1] (Table 1, value in brackets), 62 µM. For the same molecule, in series [1] (Table 11), the “MIC E. coli” value was 100 µg/mL. Also, the “MIC S. aureus ATCC 25923” value was 200 µg/mL in series [2] (ATCC 25923) and 124 µM in series [2] (Table 1, value in brackets). For the same molecule, in series [2] (Table 11), the “MIC S. aureus” value stood at 200 µg/mL.

As to “RRWYRWWR-NH2 [LFM 17-24 R1,2, 8 W3, 7Y4NH2]”, the “MIC E. coli” value in series [1] (ATCC 25922) is 5 µg/mL. The “MIC S. aureus” value in series [2] (ATCC 25923) turned out to be 2.5 µg/mL.

As for “SKCRQWQSKIRRTNP [Native LFP, porcine region corresponding to LFB 17-31]”, the MIC E. coli in series [1] (Table 4) is greater than 1000 µg/mL. In series [2] (Table 4, unit assumed), the MIC S. aureus is greater than 1000 µg/mL.

The molecule TKCFQWQRNMRKVRG [Native LFH] showed an MIC E. coli in series [1] (Table 4) greater than 1000 µg/mL. The molecule also came in with an MIC S. aureus in series [2] (Table 4, unit assumed) greater than 1000 µg/mL.

For “YRMWRWAWRWR-NH2 [LFB 17-27 A7 M3 R2, 11 W4, 10 Y1 NH2]”, a half-maximal effect in series [3] (EC50) was put at 291 ± 91 µM. Besides, the “EC 50” value in series [3] (Table 13, toxicity (hemolysis)) stood at 510 ± 160 µg/mL.

As to “YRWARWWRR-NH2 [LFM 17-25 A4R2,8, 9W3, 7Y1NH2]”, the “MIC E. coli” value in series [1] (ATCC 25922) worked out at 10 µg/mL. Besides, the “MIC S. aureus” value in series [2] (ATCC 25923) turned out to be 5 µg/mL.
